Source: patent US11560385B2, “Proteasome activity enhancing compounds” (Proteostasis Therapeutics, Inc., priority 2018, dated 2023)

Molecular target: USP14 (Homo sapiens (Human), UniProt P54578)
Experiment: Usp14 inhibition assay (Example 57B, B-series compounds)
Assay type: biochemical
Conditions: IC50 class; average value from a minimum of two experimental determinations
Text: Example 57B: Usp14 Inhibition Assay
The IC50 values in the Table below represent the average value from a minimum of two experimental determinations.

Chain of USP14 (P54578 whole entry, looked up): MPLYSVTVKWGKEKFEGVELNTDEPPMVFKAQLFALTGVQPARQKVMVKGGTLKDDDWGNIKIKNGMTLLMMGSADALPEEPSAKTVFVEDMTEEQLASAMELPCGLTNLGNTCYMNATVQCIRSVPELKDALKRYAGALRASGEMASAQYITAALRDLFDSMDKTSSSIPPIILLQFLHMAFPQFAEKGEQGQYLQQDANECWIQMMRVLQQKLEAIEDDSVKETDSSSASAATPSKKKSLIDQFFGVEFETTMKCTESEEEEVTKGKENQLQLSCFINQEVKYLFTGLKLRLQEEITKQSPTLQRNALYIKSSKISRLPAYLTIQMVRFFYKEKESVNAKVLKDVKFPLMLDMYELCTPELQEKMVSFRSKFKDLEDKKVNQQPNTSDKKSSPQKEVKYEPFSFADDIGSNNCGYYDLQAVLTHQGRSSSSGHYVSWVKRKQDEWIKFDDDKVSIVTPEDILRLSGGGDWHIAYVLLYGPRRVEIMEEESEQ

SMILES	IC50 [nM]
Cc1cc(C(=O)CN2C3CCC2[C@@H](O)C3)c(C)n1-c1ccc(C#N)c(F)c1F (mixture of isomers) [Example 99B, (±)-2,3-Difluoro-4-(3-(2-((2R)-2-hydroxy-7-azabicyclo[2.2.1]heptan-7-yl)acetyl)-2,5-dimethyl-1H-pyrrol-1-yl)benzonitrile]	> 500
Cc1cc(C(=O)CN2[C@@H]3CC[C@H]2[C@@H](C)C3)c(C)n1-c1ccc(C#N)cc1 (racemic) [Example 100B, (±)-4-(2,5-Dimethyl-3-(2-((1S,2S,4R)-2-methyl-7-azabicyclo[2.2.1]heptan-7-yl)acetyl)-1H-pyrrol-1-yl)benzonitrile]	> 500
Cc1c(F)c(C(=O)CN2[C@@H]3CC[C@H]2[C@@H](C)C3)c(C)n1-c1ccc(C#N)cc1 (racemic) [Example 101B, (±)-4-(3-Fluoro-2,5-dimethyl-4-(2-((1S,2S,4R)-2-methyl-7-azabicyclo[2.2.1]heptan-7-yl)acetyl)-1H-pyrrol-1-yl)benzonitrile]	50 to 500
Cc1cc(C(=O)CN2[C@@H]3CC[C@H]2[C@@H](C(F)(F)F)C3)c(C)n1-c1ccc(C#N)cc1 (racemic) [Example 102B, (±)-4-(2,5-Dimethyl-3-(2-((1R,2R,4S)-2-(trifluoromethyl)-7-azabicyclo[2.2.1]heptan-7-yl)acetyl)-1H-pyrrol-1-yl)benzonitrile]	> 500
Cc1c(F)c(C(=O)CN2[C@@H]3CC[C@H]2[C@@H](C(F)(F)F)C3)c(C)n1-c1ccc(C#N)cc1 (racemic) [Example 103B, (±)-4-(3-Fluoro-2,5-dimethyl-4-(2-((1R,2R,4S)-2-(trifluoromethyl)-7-azabicyclo[2.2.1]heptan-7-yl)acetyl)-1H-pyrrol-1-yl)benzonitrile]	> 500
Cc1cc(C(=O)CN2[C@@H]3CC[C@H]2[C@@H](OC(F)(F)F)C3)c(C)n1-c1ccc(C#N)cc1 (racemic) [Example 105B, (±)-4-(2,5-Dimethyl-3-(2-((1R,2R,4S)-2-(trifluoromethoxy)-7-azabicyclo[2.2.1]heptan-7-yl)acetyl)-1H-pyrrol-1-yl)benzonitrile]	> 500
Cc1cc(C(=O)CN2C3CCC2[C@@H]2COC[C@H]32)c(C)n1-c1ccc(C#N)cc1 (racemic) [Example 106B, (±)-4-(2,5-Dimethyl-3-(2-((3aR,4R,7S,7aS)-octahydro-4,7-epiminoisobenzofuran-8-yl)acetyl)-1H-pyrrol-1-yl)benzonitrile]	50 to 500
Cc1cc(C(=O)CN2C3CCC2[C@@H](O)C3)c(C)n1-c1cc(F)c(C#N)cc1F (mixture of isomers) [Example 107B, (±)-2,5-Difluoro-4-(3-(2-((2R)-2-hydroxy-7-azabicyclo[2.2.1]heptan-7-yl)acetyl)-2,5-dimethyl-1H-pyrrol-1-yl)benzonitrile]	50 to 500
Cc1c(C(=O)CN2C3CCC2[C@@H](O)C3)cc(C2CCC2)n1-c1ccc(C#N)cc1 (mixture of isomers) [Example 108B, (±)-4-(5-Cyclobutyl-3-(2-((2R)-2-hydroxy-7-azabicyclo[2.2.1]heptan-7-yl)acetyl)-2-methyl-1H-pyrrol-1-yl)benzonitrile]	< 50
Cc1c(C(=O)CN2C3CCC2[C@@H](O)C3)cc(C(F)(F)F)n1-c1ccc(C#N)cc1 (mixture of isomers) [Example 109B, (±)-4-(3-(2-((2R)-2-Hydroxy-7-azabicyclo[2.2.1]heptan-7-yl)acetyl)-2-methyl-5-(trifluoromethyl)-1H-pyrrol-1-yl)benzonitrile]	50 to 500
Cc1c(C(=O)CN2C3CCC2[C@@H](O)C3)cc(C2CCCC2)n1-c1ccc(C#N)cc1 (mixture of isomers) [Example 110B, (±)-4-(5-Cyclopentyl-3-(2-((2R)-2-hydroxy-7-azabicyclo[2.2.1]heptan-7-yl)acetyl)-2-methyl-1H-pyrrol-1-yl)benzonitrile]	50 to 500
Cc1c(C(=O)CN2[C@@H]3CC[C@H]2[C@@H](O)C3)cc(C2CCCCC2)n1-c1ccc(C#N)cc1 (racemic) [Example 111B, (±)-4-(5-Cyclohexyl-3-(2-((1R,2R,4S)-2-hydroxy-7-azabicyclo[2.2.1]heptan-7-yl)acetyl)-2-methyl-1H-pyrrol-1-yl)benzonitrile]	50 to 500
